Patent US9422241B2, “Demethylpenclomedine analogs and their use as anti-cancer agents” (priority 2005, dated 2016)
Several values for one entry are separate records, joined by “and”; a condition that tells them apart may be missing. Equal entries are not always repeated. Entries after “also recorded” stand apart in the source; their conditions may differ. Where two headings read alike, the source gives them in different places.

Assays:
[1] = system: KG breast CA; experiment: in vitro cytotoxic activity against KG breast cancer explants; type: cell-based, human
Description: (§1) In one embodiment, preferred therapeutic agents are identified herein by assessing their in vitro cytotoxic activity against cultured model cancer cell lines. […] Suitable cell lines against which the disclosed compounds may be assessed are well known to those of skill in the art and include, by way of example, KG breast CA, LM breast CA and 9L rat glioma. […] The KG breast cancer explants were obtained from surgical biopsies of chest wall metastases from breast cancer. The patient had failed on extensive standard and experimental chemo/hormone and radiation therapy protocols. Minced biopsy specimens were grown in RPMI plus 10% FBS with antibiotics at 37° C. and 5% CO2 atmosphere. DM-CHOC-PEN was tested at 0.5-5 μg/mL concentrations in medium and incubated for 24 hrs.

[2] = system: LM breast CA; experiment: in vitro cytotoxic activity against LM breast CA; type: cell-based
Description: as §1

[3] = system: 9L rat glioma; experiment: in vitro cytotoxic activity against 9L rat glioma; type: cell-based
Description: as §1

[4] = system: U251 GBM; type: in vivo; settings: for ILS (percentage increased length of survival in days vs. control): U251 GBM in cerebrum, IP qd 1-5, dose not given; for LTC (long-term cure, >30-35 days): U251 GBM, cured/animals
Protocol: (§2) U251 and D54 tumors, 10^6 cultured cells in 0.03 ml volume were injected via a 25-gauge stainless steel 0.25 inch needle into the right cerebrum with angling toward the center of the brain. […] Doses varied to include an ca LD10 as described above for the MX-1 tumor. BCNU was used clinically to treated advanced gliomas and will be used as a positive control at optimal doses of 17, 10 and 6 mg/kg on a qd 1-5 schedule, since it is also the clinical standard for brain tumors and is very active against this tumor model. DM-PEN at 60, 90 and 135 mg/kg on the same schedule was included as a comparative control. Antitumor activity was assessed on the basis of survival, with the medial day of death of the controls (10 mice) typically being ca. 30-35 days. The in vivo tumor inhibition results are recorded in Table 3.

[5] = system: D54 Glioblastoma; experiment: antitumor evaluation vs. intracerebrally implanted D54 glioblastoma xenograft; type: in vivo, mice; settings: D54 IC, 200 mg/kg IP q1d x 5d
Protocol: as §2

[6] = system: mice; experiment: acute IV toxicity in the mouse (single dose); type: in vivo; settings: for Observations (mortality): 5 M 5 F
Protocol: This example describes the toxicity of DM-CHOC-PEN to mice as administered via intravenous injections and oral gavage. For the intravenous study, the dose range-finding phase consisted of five treatment groups (one male mouse/group) that received the test article as a single dose at respective dose levels of 50 (dose volume of 5 mL/kg), 100 (dose volume of 10 mL/kg), 150 (dose volume of 15 mL/kg), 250 (dose volume of 25 mL/kg), and 500 mg/kg (intended total dose volume of 50 mL/kg). The 500 mg/kg dose was intended to be a split dose that was to be administered in equal fractions (25 mL/kg/dose) approximately four hours apart (mortality precluded administration of the second portion of the dose). An additional group (one male mouse) served as the control and received the vehicle, soybean oil, at a dose volume of 25 mL/kg using the same route of administration as the treated groups. On Day 4, following the three-day observation period, all surviving dose range-finding animals were euthanized and discarded.
The main study phase consisted of five treatment groups (five mice/sex/group) that received a single dose of the test article at respective dose levels of 50, 100, 200, 400, and 600 mg/kg. An additional group (five mice/sex) served as the control and received the vehicle, 0.3% Klucel+1.92% Tween® 80, using the same dosing regimen as the treated groups. All doses were at a constant volume of 25 mL/kg.
Observations for mortality, morbidity, and the availability of food and water were conducted twice daily for all animals. Observations for clinical signs were conducted daily during the study (approximately one and four hours post-dose on Day 1 and then once daily). Body weights were measured on all animals after receipt, prior to randomization and on Day 1. In addition, body weights were measured for all surviving main study phase animals on Days 7 and 14. Macroscopic evaluations were performed on each main study phase animal at necropsy (Day 15).

[7] = system: Beagle dogs; experiment: acute IV toxicity in the dog; type: in vivo; settings: for Observations (mortality): 2 M 2 F
Protocol: This example describes the acute toxicity of DM-CHOC-PEN in dogs. An acute study was performed in adult Beagle dogs, which consisted of: DM-CHOC-PEN administered once IV. Sixteen (16) adult beagle dogs (8 male and 8 female) divided into three groups received a single intravenous injection of DM-CHOC-PEN. The DM-CHOC-PEN was administered in 0.3% Klucel+1.92% Tween® 80, The results are recorded in Table 6.

[8] = therapeutic studies (not specified further); type: in vivo
[9] = system: mice; experiment: acute IV toxicity in the mouse (single dose); type: in vivo; settings: Mouse CD2F1, 12 F, 21 days
[10] = system: mice; experiment: sub-acute oral mouse toxicity study; settings: daily for five days, 800-2000 mg/kg
Protocol: Sub-acute oral mouse toxicity study was conducted at MPI Research, Mattawan, Mich., under GLP conditions in male/female mice.

[11] = system: MX-1 Breast Cancer; experiment: antitumor evaluation vs. MX-1 breast cancer xenograft
[12] = system: patients with advanced solid tumors; settings: one hour infusion for 5 consecutive days; dysmetria, ataxia, vertigo; cited from earlier work

4-Demethyl cholesteryloxycarbonylpenclomedine [DM-CHOC-PEN]
in vitro IC50 ([1]; KG breast CA): 0.7±0.4 micrograms/mL | IC50 ([1]; KG breast cancer explants, 0.5-5 μg/mL in medium, incubated 24 hrs): 1.1 ± 0.5 µg/mL | in vitro IC50 [2]: 1.0±0.5 micrograms/mL | in vitro IC50 [3]: 1.1±0.4 micrograms/mL | neurotoxicity ([4]; DM-CHOC-PEN treatment regimen in the animal studies): did not demonstrate neurotoxicity | long-term survivors ([4]; Table 3, U251): 20% | ILS (percentage increased length of survival in days vs. control) ([4]; Table 3): 29% | LTC (long-term cure, >30-35 days) ([4]; Table 3): ⅕ | increase in survival compared to DM-PEN ([4]; U251, IP daily x 5 days): two-fold | tumor burden reduction ([4]; U251, IP daily x 5 days): log107 | % Increase in Life Span (% ILS) ([4]; U251 IC, 135 mg/kg IP q1d x 5d): +29% | % Long Term Survivors (% LTS) ([4]; U251 IC, 135 mg/kg IP q1d x 5d, LTS >90 days, 135 mg/kg): 20% and 20 (1/5 CR) % | weight loss ([4]; U251 xenograft mice, IP daily x 5): no weight loss | % Increase in Life Span (% ILS) [5]: +3% | % Long Term Survivors (% LTS) [5]: 20 (1/5 CR) % | macroscopic findings at necropsy ([6]; Day 15): No macroscopic findings | LD50 ([6]; Mouse, IV single dose): 390 mg/kg | time until the last death ([6]; Mouse, IV, 14-day study): 2 to 14 days | Comparable Human IV Dosage ([6]; estimated from mouse LD10): 39 mg/m^2 | body weight effects ([6]; mice surviving the 14-day observation period vs controls): No definitively clear treatment-related body effects | intravenous LD10 ([6]; mice, combined sexes, single dose): 136 mg/kg | intravenous LD50 ([6]; mice, combined sexes, 95% confidence limits 298 to 502 mg/kg): 385 mg/kg | Observations (mortality) ([6]; single IV dose 50 mg/kg, 50 mg/kg): 1 of 10 and 0 M and 1 F died | Observations (mortality) ([6]; single IV dose 100 mg/kg, 100 mg/kg): No animals died; also recorded: No deaths | Observations (mortality) ([6]; single IV dose 200 mg/kg, 200 mg/kg): 1 of 10 and 0 M and 1 F died | Observations (mortality) ([6]; single IV dose 400 mg/kg, 400 mg/kg): 7 of 10 and 4 M and 3 F died | Observations (mortality) ([6]; single IV dose 600 mg/kg, 600 mg/kg): 8 of 10 and 5 M and 3 F died | clinical signs ([6]; single IV dose 50-600 mg/kg, both sexes, generally dose-dependent): decreased activity, rapid/difficult/slow/shallow breathing, limbs splayed, tremors and skin cold to touch | deaths in dose range-finding phase ([6]; single IV dose in soybean oil, at 0, 100, 250 and 500 mg/kg, one male mouse/group): immediate deaths | Acute IV (LD10) ([7]; Dog): >30 mg/kg | LD50 ([7]; Dog, Beagle, IV single dose, 10 days): >30 mg/kg | Observations (mortality) ([7]; IV once 10 mg/kg): No deaths | Observations (mortality) ([7]; IV once 20 mg/kg): No deaths | Observations (mortality) ([7]; IV once 30 mg/kg): No deaths | Comparable Human IV Dosage ([7]; estimated from dog LD10): >600 mg/m^2 | effects directly related to the test article ([7]; single IV injection 10, 20 and 30 mg/kg): no effects that were directly related to the test article | dosing range in which responses were seen [8]: 150 to 225 mg/kg | LD50 [9]: 390 mg/kg | mortality [10]: Only one death occurred at 800 mg/kg | seizures [10]: No seizures noted | clinical observations ([10]; similar in controls): some degree of lethargy and unkept appearance | % Increase in Life Span (% ILS) ([11]; MX-1 IC, 25 mg/kg IP q1d x 5d): +6% | % Increase in Life Span (% ILS) ([11]; MX-1 IC, 50 mg/kg IP q1d x 5d): +20% | % Long Term Survivors (% LTS) ([11]; MX-1 IC, printed on the 25 mg/kg line (25 and 50 mg/kg tested), IP q1d x 5d): 17% and 17 (1/6 CR) % | weight loss ([11]; MX-1 tumor mice, daily dosing for 5 days): no weight loss

O=NN(CCCl)C(=O)NCCCl [BCNU, reference compound]
% ILS ([4]; U251, BCNU positive control): +92%

COc1[nH]c(C(Cl)(Cl)Cl)c(Cl)c(=O)c1Cl [DM-PEN, 4-demethylpenclomedine, reference compound]
activity in vitro ([1]; requires prior activation per the liver): not active in vitro | ILS (percentage increased length of survival in days vs. control) ([4]; Table 3): 13% | LTC (long-term cure, >30-35 days) ([4]; Table 3): 0 | complete responders ([4]; Table 4 tumors, daily dosing for 5 days): did not produce any complete responders | % ILS ([4]; U251 IC, 90 mg/kg IP q1d x 5d): 17% | % LTS (given as survivors/animals) ([4]; U251 IC, 90 mg/kg IP q1d x 5d): 0/5 | % ILS ([11]; MX-1 IC, 60 mg/kg IP q1d x 5d): 12% | % LTS (given as survivors/animals) ([11]; MX-1 IC, 60 mg/kg IP q1d x 5d): 0/5

COc1nc(C(Cl)(Cl)Cl)c(Cl)c(OC)c1Cl [PEN, 3,5-dichloro-4,6-dimethoxy-2-(trichloromethyl)-pyridine]
neurotoxicity in clinical trials [12]: dose-limiting neurotoxicity was observed
